According to patent US10011591B2, “Crystalline form of afatinib dimaleate” (Sun Pharmaceutical Industries Limited, priority 2014, dated 2018):

Assay: Storage stability towards polymorphic conversion, triple layer package
Type: physicochemical
Conditions: 25° C. ±2° C. and 60% ±5% relative humidity for two months under triple layer package
From the text: The term “triple layer package,” as used herein, refers to the afatinib dimaleate being packed in a low density polyethylene (LDPE) pouch, then inserted and heat sealed under vacuum in a bag with a mixture of polyester/LDPE with silica sachet as a desiccant, and then further inserted and heat sealed under vacuum into an outer bag with a mixture of polyester film/aluminum foil/polyester LDPE.

CN(C)C/C=C/C(=O)Nc1cc2c(Nc3ccc(F)c(Cl)c3)ncnc2cc1O[C@H]1CCOC1.O=C(O)/C=C\C(=O)O.O=C(O)/C=C\C(=O)O [crystalline Form I of afatinib dimaleate, 2-butenamide, N-[4-[(3-chloro-4-fluorophenyl)amino]-7-[[(3S)-tetrahydro-3-furanyl]oxy]-6-quinazolinyl]-4-(dimethylamino)-,(2E)-, (2Z)-2-butenedioate (1:2)]
polymorphic form stability on storage (conversion to any other form): not converted to any other form of afatinib dimaleate
